Test results from the supplement of paper PMC10307832.

Key:
Assay in all cases: relative viability (nuclei count vs DMSO), 5 days (fraction); higher = more cells survive
Vismodegib + Tozasertib = compound: CS(=O)(=O)c1ccc(C(=O)Nc2ccc(Cl)c(-c3ccccn3)c2)c(Cl)c1 [Vismodegib] + Cc1cc(Nc2cc(N3CCN(C)CC3)nc(Sc3ccc(NC(=O)C4CC4)cc3)n2)n[nH]1 [Tozasertib] (partner 0.1 µM)
Procedure, shortened: (§1)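 Dosing by pin tool came one day after lung cancer cell lines were seeded in 1536-well plates, using either one drug or a fixed anchor-drug dose plus five library-drug doses (not always all listed) in √10 steps. After 5 days, nuclei were counted on 4× images. Relative viability is treated-well nuclei count divided by vehicle-well nuclei count, and values are medians of duplicate plates.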

Ruxolitinib + Navitoclax = compound: N#CC[C@H](C1CCCC1)n1cc(-c2ncnc3[nH]ccc23)cn1 [Ruxolitinib] + CC1(C)CCC(c2ccc(Cl)cc2)=C(CN2CCN(c3ccc(C(=O)NS(=O)(=O)c4ccc(N[C@H](CCN5CCOCC5)CSc5ccccc5)c(S(=O)(=O)C(F)(F)F)c4)cc3)CC2)C1 [Navitoclax] (partner 0.5 µM)
Procedure, shortened: as §1

Ruxolitinib + AZD7762 = compound: N#CC[C@H](C1CCCC1)n1cc(-c2ncnc3[nH]ccc23)cn1 [Ruxolitinib] + NC(=O)Nc1cc(-c2cccc(F)c2)sc1C(=O)N[C@H]1CCCNC1 [AZD7762] (partner 0.2 µM)
Procedure, shortened: as §1

VE-821 + Alpelisib = compound: CS(=O)(=O)c1ccc(-c2cnc(N)c(C(=O)Nc3ccccc3)n2)cc1 [VE-821] + Cc1nc(NC(=O)N2CCC[C@H]2C(N)=O)sc1-c1ccnc(C(C)(C)C(F)(F)F)c1 [Alpelisib] (partner 2 µM)
Procedure, shortened: as §1

Cell Line	relative viability (Vismodegib + Tozasertib; first compound 0.08 µM)	relative viability (Vismodegib + Tozasertib; first compound 0.253 µM)	relative viability (Vismodegib + Tozasertib; first compound 0.8 µM)	relative viability (Vismodegib + Tozasertib; first compound 2.53 µM)	relative viability (Vismodegib + Tozasertib; first compound 8 µM)	relative viability (Ruxolitinib + Navitoclax; first compound 0.253 µM)	relative viability (Ruxolitinib + Navitoclax; first compound 0.8 µM)	relative viability (Ruxolitinib + Navitoclax; first compound 2.53 µM)	relative viability (Ruxolitinib + Navitoclax; first compound 8 µM)	relative viability (Ruxolitinib + AZD7762; first compound 0.08 µM)	relative viability (Ruxolitinib + AZD7762; first compound 0.253 µM)	relative viability (Ruxolitinib + AZD7762; first compound 0.8 µM)	relative viability (Ruxolitinib + AZD7762; first compound 2.53 µM)	relative viability (Ruxolitinib + AZD7762; first compound 8 µM)	relative viability (VE-821 + Alpelisib; first compound 0.08 µM)	relative viability (VE-821 + Alpelisib; first compound 0.253 µM)	relative viability (VE-821 + Alpelisib; first compound 0.8 µM)	relative viability (VE-821 + Alpelisib; first compound 2.53 µM)	relative viability (VE-821 + Alpelisib; first compound 8 µM)	relative viability (Ruxolitinib + Navitoclax; first compound 0.08 µM)
ChaGo-K-1	0.239	0.193	0.214	0.236	0.212	0.861	0.796	0.986	0.734	0.909	0.853	0.869	0.834	0.703	–	–	–	–	–	–
HCC-44	0.951	0.836	0.877	0.832	0.993	1.14	0.966	0.664	0.394	0.947	1.05	1	0.994	1.05	0.83	0.807	0.717	1.03	0.885	0.991
NCI-H441	0.576	0.63	0.567	0.524	0.584	0.501	0.659	0.45	0.623	1.29	1.09	1.22	1.16	1.05	0.902	0.801	0.682	0.672	0.744	0.817
NCI-H1299	–	–	–	–	–	1.05	1.02	1.02	0.85	–	–	–	–	–	1.09	1.04	1.12	1.09	1.07	1.03
LU99A	0.301	0.248	0.239	0.268	0.269	0.737	0.803	0.751	0.666	0.336	0.402	0.394	0.406	0.477	0.585	0.512	0.444	0.414	0.277	0.986
NCI-H520	0.392	0.452	0.481	0.385	0.433	1.01	1.38	1.22	0.782	–	–	–	–	–	0.953	1.1	–	0.883	0.784	–
EPLC-272H	0.254	0.273	0.34	0.348	0.148	1.14	1.31	1.05	0.954	0.321	0.267	0.244	0.285	0.316	0.998	0.858	0.694	1.23	0.807	1.48
PC-14	0.554	0.606	0.556	0.539	0.547	1.03	1.01	0.927	0.723	–	0.356	0.363	0.347	0.359	1.08	0.863	0.981	0.931	0.936	–
LCLC-103H	0.503	0.506	0.489	0.437	0.446	–	–	–	–	0.829	0.783	0.798	0.836	0.614	1	0.95	0.85	0.966	0.986	–
COR-L 105	0.357	0.335	0.25	0.374	0.391	0.701	0.89	0.694	0.515	–	–	–	–	–	1	1	0.674	0.891	0.58	0.707
NCI-H2342	0.508	0.492	0.477	0.511	0.461	–	–	–	–	0.429	0.447	0.488	0.422	0.649	–	–	–	–	–	–
SW 900	0.52	0.574	0.56	0.426	0.435	–	–	–	–	0.656	0.525	0.722	0.891	0.833	–	–	–	–	–	–
LOU-NH91	0.622	0.688	0.644	0.656	0.675	0.688	0.909	0.585	0.688	0.757	0.664	0.797	0.74	0.73	0.747	0.738	0.66	0.75	0.702	0.487
HCC-15	0.415	0.444	0.386	0.399	0.424	0.686	0.699	0.629	0.567	1.09	0.878	1.23	1.12	1.17	0.976	0.923	1.01	0.999	0.961	0.688
A-427	0.233	0.193	0.22	0.196	0.21	0.939	0.959	0.917	0.8	0.821	0.763	0.729	0.453	0.508	1.01	1.03	1.08	1.12	0.706	1
SW 1573	0.185	0.206	0.16	0.13	0.19	0.925	1.02	0.918	1.04	–	–	–	–	–	1.07	0.713	0.745	0.888	0.774	1.06
NCI-H2087	0.258	0.306	0.212	0.185	0.234	0.874	0.846	0.801	0.795	1.19	–	1.39	1.21	0.956	1.18	0.945	1.4	1.06	1.06	0.922
LK-2	0.194	0.167	0.167	0.17	0.165	0.719	1.11	0.9	0.708	0.4	0.489	0.815	0.481	0.648	1.14	1.17	0.925	1.29	0.672	–
NCI-H1650	0.413	0.365	0.315	0.286	0.34	1.05	1.23	0.96	0.971	–	–	–	–	–	–	–	–	–	–	–
NCI-H2023	0.356	0.341	0.348	0.315	0.227	0.94	1.08	0.939	0.855	–	–	–	–	–	0.748	0.588	0.295	0.547	0.372	1
